Consider six compounds from US9593149B2, “Amylin and calcitonin receptor agonist” (Novo Nordisk A/S, priority 2014, dated 2017).

The nature of this series: Assay (IV) determination of solubility. The format is physicochemical. As for the experimental part:
Assay (IV)—Determination of Solubility
The mimylin peptide was dissolved in water at ˜500 nmol/ml and mixed 1:1 with a series of buffers (100 mM glycylglycine pH 3.0, 100 mM glycylglycine pH 4.0, 100 mM glycylglycine pH 5.0, 100 mM bistrispropane pH 6.0, 100 mM bistrispropane pH 6.5, 100 mM bistrispropane pH 7.0, 100 mM bistrispropane pH 7.5, 100 mM bistrispropane pH 8.0).

SMILES strings stand for the structures. Converted amounts (≈) assume the structure as drawn. Peptide text beside a SMILES is read from it. * marks the point of attachment. C18 diacid = O=C(O)CCCCCCCCCCCCCCCCC(=O)*; Palmitoyl = CCCCCCCCCCCCCCCC(=O)*

As for `CC[C@H](C)[C@H](NC(=O)[C@H](CCC(=O)O)NC(=O)[C@H](CO)NC(=O)[C@H](C)NC(=O)[C@H](CCC(=O)O)NC(=O)CCCCCCCCCCCCCCCCC(=O)O)C(=O)N[C@@H](CO)C(=O)N[C@H](C(=O)N[C@@H](C)C(=O)N[C@@H](C)C(=O)N[C@@H](CC(C)C)C(=O)NCC(=O)N[C@@H](CCCNC(=N)N)C(=O)N[C@@H](CC(C)C)C(=O)N[C@@H](CO)C(=O)N[C@@H](C)C(=O)N[C@@H](CCC(=O)O)C(=O)N[C@@H](CC(C)C)C(=O)N[C@@H](Cc1cnc[nH]1)C(=O)N[C@@H](CCC(=O)O)C(=O)N[C@@H](CC(C)C)C(=O)N[C@@H](C)C(=O)N[C@H](C(=O)N[C@@H](CC(C)C)C(=O)N1CCC[C@H]1C(=O)N[C@@H](CCCNC(=N)N)C(=O)N[C@H](C(=O)N[C@@H](CCC(=O)O)C(=O)N[C@H](C(=O)NCC(=O)N1CCC[C@H]1C(=O)N[C@@H](CCC(=O)O)C(=O)N[C@@H](CO)C(=O)N1CCC[C@H]1C(N)=O)[C@@H](C)O)[C@@H](C)O)[C@@H](C)O)[C@@H](C)O` [Ex. #8, [N-terminal(C18 diacid), 5I]mimylin] ({C18 diacid}-EASEISTAALGRLSAELHELATLPRTETGPESP-NH2), the Solubility entry (pH 3.0) is listed as “≧200 μM”; the Solubility entry (pH 6.0) is given as “≧200 μM”; the Solubility result (pH 6.5) is reported as “≧200 μM”; the Solubility result (pH 7.0) was “≧200 μM”; the Solubility result (pH 7.5) is reported as “≧200 μM”; the Solubility result (pH 8.0) is “≧200 μM”. Further, the solubility (usually how much of the substance goes into solution per volume) at 18 h by setting is: (pH 4.0) 94 µM (≈ 351 µg/mL); (pH 5.0) 35 µM (≈ 131 µg/mL).
On to `CCCCCCCCCCCCCCCC(=O)N[C@@H](CCC(=O)O)C(=O)N[C@@H](C)C(=O)N[C@@H](CO)C(=O)N[C@@H](CCC(=O)O)C(=O)N[C@@H](CC(C)C)C(=O)N[C@@H](CO)C(=O)N[C@H](C(=O)N[C@@H](C)C(=O)N[C@@H](C)C(=O)N[C@@H](CC(C)C)C(=O)NCC(=O)N[C@@H](CCCNC(=N)N)C(=O)N[C@@H](CC(C)C)C(=O)N[C@@H](CO)C(=O)N[C@@H](C)C(=O)N[C@@H](CCC(=O)O)C(=O)N[C@@H](CC(C)C)C(=O)N[C@@H](Cc1cnc[nH]1)C(=O)N[C@@H](CCC(=O)O)C(=O)N[C@@H](CC(C)C)C(=O)N[C@@H](C)C(=O)N[C@H](C(=O)N[C@@H](CC(C)C)C(=O)N1CCC[C@H]1C(=O)N[C@@H](CCCNC(=N)N)C(=O)N[C@H](C(=O)N[C@@H](CCC(=O)O)C(=O)N[C@H](C(=O)NCC(=O)N1CCC[C@H]1C(=O)N[C@@H](CCC(=O)O)C(=O)N[C@@H](CO)C(=O)N1CCC[C@H]1C(N)=O)[C@@H](C)O)[C@@H](C)O)[C@@H](C)O)[C@@H](C)O` [compound 7, [N-terminal(C16)]mimylin] (Palmitoyl-EASELSTAALGRLSAELHELATLPRTETGPESP-NH2), for which the Solubility entry is given as “≧200 μM” (pH 3.0); “≧200 μM” (pH 4.0); “≧200 μM” (pH 5.0); “≧200 μM” (pH 6.0); “≧200 μM” (pH 6.5); “≧200 μM” (pH 7.0). For the same compound, the Solubility result is on record as “≧200 μM” (pH 7.5) and “≧200 μM” (pH 8.0).
As for `CC[C@H](C)[C@H](NC(=O)[C@H](C)NC(=O)[C@@H](NC(=O)[C@H](CO)NC(=O)[C@H](CC(C)C)NC(=O)[C@H](CCC(=O)O)NC(=O)[C@H](CO)NC(=O)[C@H](C)NC(=O)[C@H](CCC(=O)O)NC(=O)CCCCCCCCCCCCCCCCC(=O)O)[C@@H](C)O)C(=O)N[C@@H](CC(C)C)C(=O)NCC(=O)N[C@@H](CCCNC(=N)N)C(=O)N[C@@H](CC(C)C)C(=O)N[C@@H](CO)C(=O)N[C@@H](C)C(=O)N[C@@H](CCC(=O)O)C(=O)N[C@@H](CC(C)C)C(=O)N[C@@H](Cc1cnc[nH]1)C(=O)N[C@@H](CCC(=O)O)C(=O)N[C@@H](CC(C)C)C(=O)N[C@@H](C)C(=O)N[C@H](C(=O)N[C@@H](CC(C)C)C(=O)N1CCC[C@H]1C(=O)N[C@@H](CCCNC(=N)N)C(=O)N[C@H](C(=O)N[C@@H](CCC(=O)O)C(=O)N[C@H](C(=O)NCC(=O)N1CCC[C@H]1C(=O)N[C@@H](CCC(=O)O)C(=O)N[C@@H](CO)C(=O)N1CCC[C@H]1C(N)=O)[C@@H](C)O)[C@@H](C)O)[C@@H](C)O` [compound 10, [N-terminal(C18 diacid), 9I]mimylin] ({C18 diacid}-EASELSTAILGRLSAELHELATLPRTETGPESP-NH2), the Solubility entry is recorded as “≧200 μM” (pH 3.0); “≧200 μM” (pH 5.0); “≧200 μM” (pH 6.0); “≧200 μM” (pH 6.5); “≧200 μM” (pH 7.0); “≧200 μM” (pH 7.5). The Solubility result (pH 8.0) is reported as “≧200 μM”. Where the note is “pH 4.0”, this compound displayed a solubility at 18 h of 182 µM (≈ 687 µg/mL).
Consider `CC[C@H](C)[C@H](NC(=O)[C@H](CCC(=O)O)NC(=O)[C@H](C)NC(=O)[C@H](CO)NC(=O)[C@H](CC(C)C)NC(=O)[C@H](CCCNC(=N)N)NC(=O)CNC(=O)[C@H](CC(C)C)NC(=O)[C@H](C)NC(=O)[C@H](C)NC(=O)[C@@H](NC(=O)[C@H](CO)NC(=O)[C@H](CC(C)C)NC(=O)[C@H](CCC(=O)O)NC(=O)[C@H](CO)NC(=O)[C@H](C)NC(=O)[C@H](CCC(=O)O)NC(=O)CCCCCCCCCCCCCCCCC(=O)O)[C@@H](C)O)C(=O)N[C@@H](Cc1cnc[nH]1)C(=O)N[C@@H](CCC(=O)O)C(=O)N[C@@H](CC(C)C)C(=O)N[C@@H](C)C(=O)N[C@H](C(=O)N[C@@H](CC(C)C)C(=O)N1CCC[C@H]1C(=O)N[C@@H](CCCNC(=N)N)C(=O)N[C@H](C(=O)N[C@@H](CCC(=O)O)C(=O)N[C@H](C(=O)NCC(=O)N1CCC[C@H]1C(=O)N[C@@H](CCC(=O)O)C(=O)N[C@@H](CO)C(=O)N1CCC[C@H]1C(N)=O)[C@@H](C)O)[C@@H](C)O)[C@@H](C)O` [compound 11, [N-terminal(C18 diacid), 17I]mimylin] ({C18 diacid}-EASELSTAALGRLSAEIHELATLPRTETGPESP-NH2), for which the Solubility entry by setting is: (pH 3.0) “≧200 μM”; (pH 4.0) “≧200 μM”; (pH 5.0) “≧200 μM”; (pH 6.0) “≧200 μM”; (pH 6.5) “≧200 μM”; (pH 7.0) “≧200 μM”. The Solubility result is, setting by setting: (pH 7.5) “≧200 μM”; (pH 8.0) “≧200 μM”.
As for `CC[C@H](C)[C@H](NC(=O)[C@H](CCC(=O)O)NC(=O)[C@H](Cc1cnc[nH]1)NC(=O)[C@H](CC(C)C)NC(=O)[C@H](CCC(=O)O)NC(=O)[C@H](C)NC(=O)[C@H](CO)NC(=O)[C@H](CC(C)C)NC(=O)[C@H](CCCNC(=N)N)NC(=O)CNC(=O)[C@H](CC(C)C)NC(=O)[C@H](C)NC(=O)[C@H](C)NC(=O)[C@@H](NC(=O)[C@H](CO)NC(=O)[C@H](CC(C)C)NC(=O)[C@H](CCC(=O)O)NC(=O)[C@H](CO)NC(=O)[C@H](C)NC(=O)[C@H](CCC(=O)O)NC(=O)CCCCCCCCCCCCCCCCC(=O)O)[C@@H](C)O)C(=O)N[C@@H](C)C(=O)N[C@H](C(=O)N[C@@H](CC(C)C)C(=O)N1CCC[C@H]1C(=O)N[C@@H](CCCNC(=N)N)C(=O)N[C@H](C(=O)N[C@@H](CCC(=O)O)C(=O)N[C@H](C(=O)NCC(=O)N1CCC[C@H]1C(=O)N[C@@H](CCC(=O)O)C(=O)N[C@@H](CO)C(=O)N1CCC[C@H]1C(N)=O)[C@@H](C)O)[C@@H](C)O)[C@@H](C)O` [compound 12, [N-terminal(C18 diacid), 20I]mimylin] ({C18 diacid}-EASELSTAALGRLSAELHEIATLPRTETGPESP-NH2), the Solubility result is given as “≧200 μM” (pH 3.0); “≧200 μM” (pH 4.0); “≧200 μM” (pH 5.0); “≧200 μM” (pH 6.0); “≧200 μM” (pH 6.5); “≧200 μM” (pH 7.0). The Solubility result (pH 7.5) was “≧200 μM” and the Solubility entry (pH 8.0) is reported as “≧200 μM”.
For `CC(C)C[C@H](NC(=O)[C@H](C)NC(=O)[C@@H](NC(=O)[C@H](CO)NC(=O)[C@H](CC(C)C)NC(=O)[C@H](CCC(=O)O)NC(=O)[C@H](CO)NC(=O)[C@H](C)NC(=O)[C@H](CCC(=O)O)NC(=O)CCCCCCCCCCCCCCCCC(=O)O)[C@@H](C)O)C(=O)N[C@@H](CC(C)C)C(=O)NCC(=O)N[C@@H](CCCNC(=N)N)C(=O)N[C@@H](CC(C)C)C(=O)N[C@@H](CO)C(=O)N[C@@H](C)C(=O)N[C@@H](CCC(=O)O)C(=O)N[C@@H](CC(C)C)C(=O)N[C@@H](Cc1cnc[nH]1)C(=O)N[C@@H](CCC(=O)O)C(=O)N[C@@H](CC(C)C)C(=O)N[C@@H](C)C(=O)N[C@H](C(=O)N[C@@H](CC(C)C)C(=O)N1CCC[C@H]1C(=O)N[C@@H](CCCNC(=N)N)C(=O)N[C@H](C(=O)N[C@@H](CCC(=O)O)C(=O)N[C@H](C(=O)NCC(=O)N1CCC[C@H]1C(=O)N[C@@H](CCC(=O)O)C(=O)N[C@@H](CO)C(=O)N1CCC[C@H]1C(N)=O)[C@@H](C)O)[C@@H](C)O)[C@@H](C)O` [compound 14, [N-terminal(C18 diacid), 9L]mimylin] ({C18 diacid}-EASELSTALLGRLSAELHELATLPRTETGPESP-NH2), the Solubility result (pH 3.0) is reported as “≧200 μM”; the Solubility result (pH 4.0) is reported as “≧200 μM”; the Solubility entry (pH 5.0) is on record as “≧200 μM”; the Solubility entry (pH 6.0) was “≧200 μM”; the Solubility entry (pH 6.5) was “≧200 μM”; the Solubility entry (pH 7.0) was “≧200 μM”. Also, the Solubility result is “≧200 μM” (pH 7.5) and “≧200 μM” (pH 8.0).
